Source: patent US5298411A, “Glucose dehydrogenase from pseudomonas” (Toyo Boseki Kabushiki Kaisha, priority 1990, dated 1994)
Read-outs that look alike come from different tables or passages of the source.

Columns and labels:
Type in all cases: biochemical, Pseudomonas sp. FH1227
[1] = tested on: glucose dehydrogenase (EC1.1.1.47); experiment: Substrate specificity of the glucose dehydrogenase (enzyme activity determination); settings: for Relative activity (%): Substrate (100 mM), β-D-glucose = 100.0
Text: (2) Substrate specificity
(§1) (11) Enzyme activity determination
(A) 0.1M Tris-HCl buffer, pH 8.0
(§2) Calculation equation: [formula]
1.0=optical path length (cm)

[2] = tested on: glucose dehydrogenase (EC1.1.1.47); experiment: Km value determination
[3] = tested on: glucose dehydrogenase (EC1.1.1.47)
Protocol: as §1
The enzyme activity was determined by taking the enzyme activity producing 1 micromole of NADH per 1 minute under the conditions mentioned below as 1 unit.
1. The following reaction mixture is prepared in a cuvette (d=1 cm) and preheated at 37° C. for about 5 minutes.
2. An enzyme solution (0.05 ml) is added thereto, and the mixture is gently stirred. The change of absorbance at 340 nm is recorded for 5 minutes using a spectrophotometer controlled at 37° C. with water as the control. The change of absorbance per 1 minute is estimated on the basis of the linear portion from minute 2 to minute 5. (ΔOD test)
3. The blank test is conducted by following the same procedure as above except that 0.05 ml of […] (with phosphate buffer, pH 7.0) is used in place of the enzyme solution, to estimate the change in absorbance per 1 minute. (ΔOD blank)
as §2

[4] = read-out: Km value to the coenzyme
[5] = inhibitor concentration 2.0 × 10^-3 M, non added = 100.0

| Molecule | Relative activity (%) [1] [%] | also measured |
| --- | --- | --- |
| 2-deoxy-glucose | 119.7 | Substrate specificity [1]: specifically acts on |
| O=C(CO)[C@@H](O)[C@H](O)[C@H](O)CO [D-fructose] | 0.8 |  |
| OC[C@H]1OC(O)[C@H](O)[C@@H](O)[C@H]1O (stereo partly drawn) [D-galactose] | 0.1 |  |
| OC[C@H]1O[C@@H](O[C@H]2[C@H](O)[C@@H](O)C(O)O[C@@H]2CO)[C@H](O)[C@@H](O)[C@H]1O (stereo partly drawn) [D-lactose] | 1.2 |  |
| OC[C@@H](O)[C@@H](O)[C@H](O)[C@H](O)CO [D-mannitol] | 0.0 |  |
| OC[C@H]1OC(O)[C@@H](O)[C@@H](O)[C@@H]1O (stereo partly drawn) [D-mannose] | 2.4 |  |
| OC[C@@H](O)[C@@H](O)[C@H](O)[C@@H](O)CO [D-sorbitol] | 0.1 |  |
| OC[C@@H]1OC(O)[C@@H](O)[C@H](O)[C@H]1O (stereo partly drawn) [L-glucose] | 0.0 |  |
| O=C(CO)[C@@H](O)[C@H](O)[C@@H](O)CO [L-sorbose] | 0.3 |  |
| NC(=O)c1ccc[n+]([C@@H]2O[C@H](COP(=O)([O-])OP(=O)(O)OC[C@H]3O[C@@H](n4cnc5c(N)ncnc54)[C@H](OP(=O)(O)O)[C@@H]3O)[C@@H](O)[C@H]2O)c1 [NADP] |  | Km [2, 4]: 0.0407 mM |
| NC(=O)c1ccc[n+]([C@@H]2O[C@H](COP(=O)([O-])OP(=O)(O)OC[C@H]3O[C@@H](n4cnc5c(N)ncnc54)[C@H](O)[C@@H]3O)[C@@H](O)[C@H]2O)c1 [NAD] |  | Km [2, 4]: 0.308 mM |
| O[C@H]1[C@H](O)[C@@H](O)[C@H](O)[C@@H](O)[C@H]1O [inositol] | 0.2 |  |
| OC[C@H]1O[C@H](O[C@H]2[C@H](O)[C@@H](O)[C@H](O)O[C@@H]2CO)[C@H](O)[C@@H](O)[C@@H]1O [maltose] | 3.9 |  |
| [Cl][Hg][Cl] [mercury chloride] |  | Inhibition of the enzyme [3]: inhibited; Relative activity (%) [3, 5]: 5.9% |
| O=C(O)CI [monoiodoacetate] |  | Inhibition of the enzyme [3]: inhibited; Relative activity (%) [3]: 0.4% |
| OC[C@H]1O[C@@](CO)(O[C@H]2O[C@H](CO)[C@@H](O)[C@H](O)[C@H]2O)[C@@H](O)[C@@H]1O [saccharose] | 0.0 |  |
| O=[N+]([O-])[O-].[Ag+] [silver nitrate] |  | Inhibition of the enzyme [3]: inhibited; Relative activity (%) [3, 5]: 7.1% |
| OC[C@H]1O[C@@H](O)[C@H](O)[C@@H](O)[C@@H]1O [β-D-glucose] | 100.0 | Km ([2]; coenzyme NAD, read-out: Km value to β-D-glucose): 13.8 mM; Km ([2]; coenzyme NADP, read-out: Km value to β-D-glucose): 12.5 mM; Substrate specificity [1]: specifically acts on |
| xylose | 8.9 |  |
